This note sets out measurements from US20170313669A1, “LACTONE COMPOUNDS AND METHODS OF MAKING AND USING SAME” (THE SCRIPPS RESEARCH INSTITUTE, priority 2015, published 2017).

Holding throughout (format): biochemical
One test has as its target T1, ABHD16A (mouse) (Mus musculus, UniProt Q9Z1Q2).
T1 construct: full-length cDNA of human ABHD16A (Open Biosystems Catalog # MHS6278-202758315) or murine ABHD16A (Open Biosystems Catalog # MMM1013-202760516) in pCMV-SPORT6 vector; host or cells: HEK293T
Kind of test: Lipid substrate hydrolysis assay, murine ABHD16A-transfected HEK293T membrane proteome. The following applies: substrate 100 μM. How it is done: (§1) All the lipid species used in the lipid substrate hydrolysis assays were purchased from Avanti Polar Lipids Inc unless mentioned otherwise. In general, 20 μg of proteome was incubated with 100 μM lipid in a reaction volume of 100 μL in PBS at 30° C. with constant shaking. After 30 minutes the reaction was quenched with 350 μL of 2:1 (vol/vol) CHCl3: MeOH, doped with 0.5 nmol internal standard (17:1 FFA). The mixture was vortexed, and the centrifuged at 2800×g for 5 minutes to separate the aqueous (top) and organic (bottom) phase. The organic phase was collected. 5 μL of formic acid was added to the aqueous phase, and extracted again using 350 μL of 2:1 (vol/vol) CHCl3: MeOH using above mentioned protocol. The organic phase was collected, and pooled with the organic phase from the first extraction. […] All the data was collected and analyzed using the Agilent MassHunter Workstation software version B.04 using the Data Acquisition and Quantitative Analysis programs respectively. Measuring the area under the peak, and normalizing it to the internal standard quantified the product release for the lipid substrate hydrolysis assays. […] Some products from the substrate hydrolysis assays were detected in positive ion mode for qualitative identification. […]

The nature of test [1]: Lipid substrate hydrolysis assay, mock-transfected HEK293T membrane proteome. The following applies: substrate 100 μM. On the procedure: as §1
Test [2] deals with T2, ABHD16A (WT and S355A mutant) (Homo sapiens, UniProt O95870).
T2 construct: All full-length cDNA constructs coding for serine hydrolases ABHD16A, and ABHD12 were purchased from Open Biosystems; FLAG; expressed in transfected cells; host or cells: HEK293T
T2 sequence (O95870 whole entry S355A): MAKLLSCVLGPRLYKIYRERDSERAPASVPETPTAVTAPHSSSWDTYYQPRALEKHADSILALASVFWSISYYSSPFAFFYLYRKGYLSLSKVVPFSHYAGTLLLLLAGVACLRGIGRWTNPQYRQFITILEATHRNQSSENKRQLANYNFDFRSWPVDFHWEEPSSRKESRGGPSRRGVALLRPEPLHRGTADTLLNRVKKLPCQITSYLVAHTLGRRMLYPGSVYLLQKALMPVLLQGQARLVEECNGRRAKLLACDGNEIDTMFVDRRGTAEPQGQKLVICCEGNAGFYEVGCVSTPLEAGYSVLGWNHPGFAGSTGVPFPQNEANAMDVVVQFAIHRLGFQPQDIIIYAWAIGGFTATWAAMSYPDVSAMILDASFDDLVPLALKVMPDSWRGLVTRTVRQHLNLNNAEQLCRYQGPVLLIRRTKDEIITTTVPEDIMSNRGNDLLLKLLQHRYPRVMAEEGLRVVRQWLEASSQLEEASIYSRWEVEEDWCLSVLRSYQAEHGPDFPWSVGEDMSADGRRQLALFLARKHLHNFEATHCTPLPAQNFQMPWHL
Kind of test: Activity-dependent labeling of ABHD16A by WHP01 in transfected HEK293T lysates. The following applies: transfected HEK293T cell lysates.

T1 sequence (Q9Z1Q2 whole entry): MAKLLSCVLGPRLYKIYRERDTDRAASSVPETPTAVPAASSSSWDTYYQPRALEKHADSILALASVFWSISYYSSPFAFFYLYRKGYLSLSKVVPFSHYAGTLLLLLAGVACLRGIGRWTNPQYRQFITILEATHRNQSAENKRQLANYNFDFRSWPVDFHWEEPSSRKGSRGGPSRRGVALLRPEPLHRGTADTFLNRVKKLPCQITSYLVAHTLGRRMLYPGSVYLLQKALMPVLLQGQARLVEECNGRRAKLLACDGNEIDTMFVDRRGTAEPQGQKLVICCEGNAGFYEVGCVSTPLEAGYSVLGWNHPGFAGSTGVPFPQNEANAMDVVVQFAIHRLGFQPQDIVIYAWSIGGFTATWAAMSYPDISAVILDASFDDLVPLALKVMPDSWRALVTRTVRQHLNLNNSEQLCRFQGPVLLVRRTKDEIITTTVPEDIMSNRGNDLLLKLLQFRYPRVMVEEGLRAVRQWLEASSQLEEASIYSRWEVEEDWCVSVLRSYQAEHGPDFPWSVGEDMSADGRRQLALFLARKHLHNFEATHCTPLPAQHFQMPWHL

Take PG 16:0/18:1: the “Lipase activity, ABHD16A, Mean” value at ABHD16A (mouse) was 12.5 nmol/mg/min. The “Lipase activity, Mock, Mean” value in test [1] was 3.8 nmol/mg/min.
On to `CCCCCCCCCCCCCC1OC(=O)/C1=C\CCCC(=O)NCCCCCNC(=O)c1ccc(-c2c3ccc(=[N+](C)C)cc-3oc3cc(N(C)C)ccc23)c(C(=O)[O-])c1` (stereo not drawn) [WHP01, (Z)-2-(6-(dimethylamino)-3-(dimethyliminio)-3H-xanthen-9-yl)-5-((5-(5-(2-oxo-4-tridecyloxetan-3-ylidene)pentanamido)pentyl)carbamoyl)benzoate], for which the “labeling of ABHD16A” value in test [2] is recorded as “labeled WT-ABHD16A but not the catalytic serine S355A mutant”.
